Measured values reported in article PMC5592744 (Frontiers in Microbiology, 2017).

What was measured:
[1] = system: SpA display in S. aureus; type: cell-based, Staphylococcus aureus
[2] = system: S. aureus; assay: microbe, parasite or virus in culture; type: cell-based; settings: Staphylococcus aureus, read-out: minimum inhibitory concentration (MIC)
[3] = system: S. aureus USA 300; type: cell-based, Staphylococcus aureus
[4] = target: WT-SrtA (Staphylococcus aureus, UniProt Q2FV99); assay: biochemical; type: binding
Chain of WT-SrtA (Q2FV99 60-206): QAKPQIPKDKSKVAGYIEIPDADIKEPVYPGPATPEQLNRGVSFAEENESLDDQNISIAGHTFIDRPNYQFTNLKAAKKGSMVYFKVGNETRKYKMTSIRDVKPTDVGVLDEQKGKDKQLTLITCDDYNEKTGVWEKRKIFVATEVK

[5] = system: agrA gene; type: cell-based, Staphylococcus aureus
[6] = system: S. aureus invasion of J774 cells; type: cell-based, Staphylococcus aureus
[7] = system: adhesion of S. aureus to Fn; type: cell-based, Staphylococcus aureus
[8] = system: A549 cells; type: cell-based
[9] = system: S. aureus biofilm formation; type: cell-based, Staphylococcus aureus
[10] = system: S. aureus; parameters: species or system C57BL/6J mice; settings: mouse, in vivo
[11] = system: hla gene; type: cell-based, Staphylococcus aureus
[12] = target: S. aureus SrtA (WT-SrtA) (Staphylococcus aureus, UniProt Q2FV99); assay: biochemical
Chain of S. aureus SrtA (WT-SrtA) (Q2FV99 60-206): as above

[13] = system: A549 cells

O=C(/C=C/c1ccccc1)c1ccccc1 [chalcone]
SpA display [1]: significant reductions
MIC [2]: > 4.86 mM
growth of S. aureus USA 300 [3]: not visibly affected
Kd [4]: 16.4 µM
transcription level of the agrA gene [5]: down-regulated
quantity of bacteria entering J774 cells [6]: significantly decreased
adhesion rate to Fn [7]: no inhibition was observed
Hla-induced A549 cell injury (Live/Dead) [8]: obvious reduction in cell injury
release of LDH into the supernatants [8]: significantly decrease
biofilm formation, untreated vs. treated [9]: quite significant
survival rate vs. group without treatment [10]: significantly higher
transcription level of the hla gene [11]: down-regulated
IC50 [12]: 53.2 µM
cytotoxic effect in A549 cells [13]: almost no cytotoxic effect
